Results: patent publication US20090208448A1, “Inhibition of angiogenesis” (priority 2008, published 2009)
“Also recorded” adds a separate entry of the source.

Key:
LNCaP xenograft tumors [1] = experiment: Tumor membrane cholesterol analysis; format: in vivo, SCID mice; conditions: ezetimibe main effect p<0.0001, n=9/group
Description: Tumor cholesterol analysis. Tumors were finely minced in phosphate buffered saline (PBS) on ice and the level of cholesterol was determined as described previously (Boucher, K., Siegel, C. S., Sharma, P., Hauschka, P. V., and Solomon, K. R. 2006. HMG-CoA reductase inhibitors induce apoptosis in pericytes. Microvasc Res 71:91-102).

[2] = tested on: LNCaP human prostate tumor xenografts; experiment: Growth of implanted LNCaP prostate tumor xenografts (volume, wet weight, take); format: in vivo, SCID mice
Description: (§1) Mice and Tumor Xenografts. 5 week old SCID mice were obtained from the Massachusetts General Hospital and were fed a low fat/no cholesterol diet (LFNC) (Research Diets, New Brunswick, N.J. diet # D12102) for two weeks, blood was drawn from the saphenous tail vein and the serum cholesterol concentration was determined using the Infinity Cholesterol Liquid Stable Reagent (Thermo Electron Corp.). For intact (non-castrated) mice, the animals were divided into the high fat/high cholesterol diet (HFHC) (Research Diets, diet # D12108) and LFNC groups with and without ezetimibe (30 mg/kg/day; Schering-Plough, New Brunswick, N.J.) and the mice continued on these diets for four weeks. For castrated mice, the mice were divided into 4 groups, 2 groups were castrated, and 2 groups were left intact. The mice were fed either the LFNC, or a low fat/high cholesterol diet (LFHC) (Research Diets, diet #D12104) for 80 days. Xenografts were initiated by injecting LNCaP (2×10^6 per site) with 1:1 volume of Matrigel (BD BioSciences, San Jose, Calif.) into the 4 dorsal quadrants of each mouse. In order to eliminate any injection bias, the mice were randomized prior to implantation and the implanter was blinded to which group each mouse was assigned. All animal procedures were done in compliance with Children's Hospital Boston's animal care and use policies. Tumors were measured daily from the initiation of the first palpable tumors and the mice sacrificed prior to reaching the maximum tumor burden (13-23 days post implantation). Terminal bleeds were taken (Cardiac puncture) for serology (triglyceride, bilirubin and other liver function tests were performed in the Dept. of Laboratory Medicine, Children's Hospital Boston, androgen levels were determined by a testosterone EIA, Diagnostic Systems Laboratories, Webster, Tex.). Tumors were removed, measured, weighed and either placed in OCT solution (Tissue-Tek, Torrance, Calif.) or snap frozen.
Following alteration of cholesterol levels, the mice from Example 3 were injected subcutaneously with 2×10^6 LNCaP cells in their flanks (4 tumors/mouse). Regimens were continued following implantation, and the experiment continued for 13 days following the initial appearance of tumors. Tumor volume was measured daily (FIG. 2B). […] The overall effect of diet and ezetimibe was independent and additive, not synergistic. […] Tumor take was >95% in all groups and no significant differences in tumor take were observed.

LNCaP xenograft tumors [3] = experiment: Microvessel density (MVD), CD31 analysis; format: in vivo, SCID mice; conditions: ezetimibe p=0.013, larger effects with HFHC (p=0.01)
Description: (§2) Immunofluorescence. Tumor samples frozen in OCT were sectioned (3-20 μm thick), mounted on Superfrost slides (ThermoFisher Scientific, Waltham, Mass.), and air-dried for 30 min. Sections were then fixed using cold acetone (5 min), followed by 1:1 acetone:chloroform (5 min), and then acetone (5 min) or by using 4% PFA at room temp (30 min) followed by 0.025% PBS/Triton X-100 (5 min) to permeabilize the cells. Sections were washed with cold PBS 3× for 5 min each and were incubated in a protein blocking solution of PBS/Tween (0.1%) with 5% bovine serum albumin (BSA; Sigma) at room temp (30 min) and were then washed in cold PBS 3× for 5 min each. The appropriate primary antibodies diluted 1:200-1:1000 in blocking solution were incubated with the sections overnight at 4° C. Sections were washed 3× for 5 min in cold PBS, and incubated in blocking solution (10 min). The sections were then incubated with the appropriate fluorescent secondary reporter antibodies diluted 1:500-1:5000 in blocking solution at room temp (30 min) followed by washing 3× in PBS. Nuclei were counter-stained with DAPI. Double staining of CD31 with TSP-1 and CD31 with SMA were performed sequentially as described above. […] Ki67 positive cells and nuclei were quantified using AxioVision 4.0 software.

LNCaP xenograft tumors [4] = experiment: Tumor cell apoptosis (TUNEL staining); format: in vivo, SCID mice; conditions: ezetimibe main effect p<0.0001, no synergy with diet (p=0.85)
Description: Apoptosis. Percentage of apoptotic cells in tumor sections was determined by TUNEL assay using the In Situ Cell Death Detection Kit (Roche Diagnostics Corp. Indianapolis, Ind.). Briefly, frozen tumor sections were fixed in 4% paraformaldehyde (PFA), permeabilized and the DNA stained with fluorescein following the manufacturer's instructions. Nuclei were counterstained with DAPI (Vector Labs, Burlingame, Calif.). Images were captured using a Zeiss microscope and the positive cells and nuclei were counted using Axiovision software 4.0.

[5] = Serology (triglyceride, liver function tests) and feeding observation; format: in vivo, SCID mice
Description: as §1

serum cholesterol = experiment: Serum cholesterol levels in diet/ezetimibe SCID mouse cohorts (Infinity colorimetric assay); format: in vivo, SCID mice; conditions: ezetimibe 30 mg/kg/d, 4 weeks, both LFNC and HFHC diet groups, drug F=23.48, p<0.001
Description: as §1, with “The mice were fed either the LFNC, or a low fat/high cholesterol diet (LFHC) (Research Diets, diet #D12104) for 80 days. Xenografts were initiated by injecting LNCaP (2×10^6 per site) with 1:1 volume of Matrigel (BD BioSciences, San Jose, Calif.) into the 4 dorsal quadrants of each mouse. In order to eliminate any injection bias, the mice were randomized prior to implantation and the implanter was blinded to which group each mouse was assigned. All animal procedures were done in compliance with Children's Hospital Boston's animal care and use policies.” left out, “frozen. […]” for “frozen.”

[6] = literature (Jurado 2004; Knopp 2003); cited from earlier work
VEGF or bFGF = VEGF or bFGF expression in the cohorts; format: in vivo, SCID mice; conditions: between the diet/drug cohorts, data not shown
LNCaP xenograft tumors [7] = experiment: Fibroblast staining of tumor sections; format: in vivo, SCID mice; conditions: HFHC condition, p=0.03, n=55/group
Description: as §2

LNCaP xenograft tumors [8] = experiment: Tumor cell proliferation (Ki67 staining); format: in vivo, SCID mice
Description: Immunofluorescence. Tumor samples frozen in OCT were sectioned (3-20 μm thick), mounted on Superfrost slides (ThermoFisher Scientific, Waltham, Mass.), and air-dried for 30 min. Sections were then fixed using cold acetone (5 min), followed by 1:1 acetone:chloroform (5 min), and then acetone (5 min) or by using 4% PFA at room temp (30 min) followed by 0.025% PBS/Triton X-100 (5 min) to permeabilize the cells. Sections were washed with cold PBS 3× for 5 min each and were incubated in a protein blocking solution of PBS/Tween (0.1%) with 5% bovine serum albumin (BSA; Sigma) at room temp (30 min) and were then washed in cold PBS 3× for 5 min each. The appropriate primary antibodies diluted 1:200-1:1000 in blocking solution were incubated with the sections overnight at 4° C. Sections were washed 3× for 5 min in cold PBS, and incubated in blocking solution (10 min). The sections were then incubated with the appropriate fluorescent secondary reporter antibodies diluted 1:500-1:5000 in blocking solution at room temp (30 min) followed by washing 3× in PBS. Nuclei were counter-stained with DAPI. Double staining of CD31 with TSP-1 and CD31 with SMA were performed sequentially as described above. Blood vessel analysis was done using IPLab software (BD Biosciences Bioimaging, Rockville, Md.) as previously described (Bielenberg, D. R., Hida, Y., Shimizu, A., Kaipainen, A., Kreuter, M., Kim, C. C., and Klagsbrun, M. 2004. Semaphorin 3F, a chemorepulsant for endothelial cells, induces a poorly vascularized, encapsulated, nonmetastatic tumor phenotype. J Clin Invest 114:1260-1271). Thombospndin-1 (TSP-1) analysis was done using the outline spline in AxioVision 4.0 software. Ki67 positive cells and nuclei were quantified using AxioVision 4.0 software.

LNCaP xenograft tumors [9] = experiment: Pericyte coverage of microvessels (SMA staining); format: in vivo, SCID mice; conditions: ezetimibe groups, p<0.0001
Description: as §2

LNCaP xenograft tumors [10] = experiment: MVD, caveolin-1 analysis (immunoblotting and immunofluorescence); format: in vivo, SCID mice
Description: as §2, with “min).” for “min). The sections were then incubated with the appropriate fluorescent secondary reporter antibodies diluted 1:500-1:5000 in blocking solution at room temp (30 min) followed by washing 3× in PBS. Nuclei were counter-stained with DAPI. Double staining of CD31 with TSP-1 and CD31 with SMA were performed sequentially as described above.”
Lysates and Immunoblotting. […] Protein concentrations were determined by microBCA (Pierce/Thermo Scientific) and equal amounts of the lysates were subjected to SDS-PAGE and immunoblotting as described previously (Zhuang, L., Kim, J., Adam, R. M.-, Solomon, K. R., and Freeman, M. R. 2005. Cholesterol targeting alters lipid raft composition and cell survival in prostate cancer cells and xenografts. J Clin Invest 115:959-968).

LNCaP xenograft tumors [11] = experiment: Tumor hemoglobin quantification; format: in vivo, SCID mice; conditions: n=20
Description: Hemoglobin Assay. Tumors were finely minced in 1 ml of fresh PBS on ice. The minced tissue suspensions were centrifuged at 10,000 g at 4° C. (2 min) and the supernatant was removed. The optical density (OD) of the clarified supernatants was read at 650 nm (background) and 530 nm (hemoglobin) using a spectrophotometer (Boyle, M. D., and Ohanian, S. H. 1980. Evidence for the influence of the initial complement components on the assembly and activity of the membrane attack complex. J Immunol 124:2824-2827; Gee, A. P., Boyle, M. D., and Borsos, T. 1980. Distinction between C8-mediated and C8/C9-mediated hemolysis on the basis of independent 86Rb and hemoglobin release. J Immunol 124:1905-1910).

thrombospondin-1 (TSP-1) = experiment: Thrombospondin-1 (TSP-1) levels in tumor sections; format: in vivo, SCID mice; conditions: ezetimibe p<0.0001
Description: as §2

feeding behavior ([5]; observation, calorie intake 21.18 Kcal/d): did not alter feeding behavior
Structure (SMILES): O=C1[C@H](CC[C@H](O)c2ccc(F)cc2)[C@@H](c2ccc(O)cc2)N1c1ccc(F)cc1 [ezetimibe]
tumor cholesterol levels (membranes) (LNCaP xenograft tumors [1]): highly significant main effects; also recorded: independently affected
tumor wet weight at sacrifice ([2]; LFNC diet with drug, p=0.021 vs HFHC (0.88±0.71 g)): 0.63 ± 0.55 g
tumor wet weight at sacrifice ([2]; LFNC+Z group, p=0.021 vs HFHC (0.88±0.71)): 0.63±0.55 average grams/tumor site
tumor take ([2]; all diet/drug groups, no significant differences): > 95%
tumor growth rates (tumor volume) ([2]; ezetimibe 30 mg/kg/day added to diet, 13 days from first appearance of tumors, p=0.035): Significantly reduced
microvessel density (relative level of CD31 staining) (LNCaP xenograft tumors [3]): highly significant main effect; also recorded: significantly suppressed
tumor cell apoptosis (relative level of TUNEL staining) (LNCaP xenograft tumors [4]): highly significant main effects; also recorded: significantly increased
liver function (AST, ALP, bilirubin etc) ([5]; any mouse, all groups, data not shown): no liver dysfunction
serum triglyceride levels ([5]; ezetimibe cohorts, data not shown): no significant reduction; also recorded: nor were triglyceride levels significantly reduced
serum cholesterol (serum cholesterol): significant effects
serum cholesterol (serum cholesterol; listed as Ezetimibe): significant reductions
triglyceride levels in humans [6]: modest effect
VEGF or bFGF expression (VEGF or bFGF): no differences
relative level of fibroblast staining (LNCaP xenograft tumors [7]): statistically significant ezetimibe effect
relative level of Ki67 staining (LNCaP xenograft tumors [8]; HFHC diet w/ezetimibe (HFHC alone 41.16)): 30.32 (95% CI; 26.96-33.68)
relative level of Ki67 staining (LNCaP xenograft tumors [8]; LFNC diet w/ezetimibe (LFNC alone 28.78)): 25.57 (95% CI; 22.21-28.93)
tumor cell proliferation (Ki67), effect in words (LNCaP xenograft tumors [8]; ezetimibe by diet interaction p=0.027, magnitude depends on the diet): significant effect on lowering proliferation
pericyte coverage of vessels (relative level of SMA staining) (LNCaP xenograft tumors [9]): highly significant main effects; also recorded: dramatically increased
average caveolin-1 signal, immunoblotting (LNCaP xenograft tumors [10]; both diet conditions, p=0.027, n=6/group): significant drug effect in lowering caveolin
relative level of caveolin-1 staining, immunofluorescence (LNCaP xenograft tumors [10]; ezetimibe p<0.0001, n=43/group): highly significant main effects
relative hemoglobin/mg tumor tissue (LNCaP xenograft tumors [11]; HFHC+Z vs HFHC): statistical significance
relative hemoglobin/mg tumor tissue (LNCaP xenograft tumors [11]; LFNC vs LFNC+Z): not statistically different
TSP-1 levels in tumors (relative level of TSP-1 staining) (thrombospondin-1 (TSP-1)): highly significant main effects; also recorded: enhanced
